Columns and labels:
CGRP receptor = CGRP receptor (Homo sapiens (Human), UniProt O60894+Q16602); settings: in words, literature; cited from earlier work
[1] = target: CGRP receptor ectodomain complex (Homo sapiens (Human), UniProt O60894+Q16602); test: Receptor kinetic profiling by surface plasmon resonance (Biacore T200); settings: dissociation half-life, SPR, 25° C.
Protocol: Kinetic analyses were run on a Biacore T200 instrument (GE Healthcare Bio-Sciences AB, Uppsala, Sweden) at 25° C. using 0.05 mM EDTA, PBS (10 mM phosphate buffer, 2.7 mM KCl, 137 mM NaCl) pH 7.4, 0.005% v/v Surfactant P20, 5% DMSO as the running buffer. […] The chip was loaded with Ni^2+ and carboxyl groups of the dextran matrix were activated by EDC/NHS. The receptor ectodomain complex (100 nM in running buffer) was then injected and immobilised via the His-tag and amino groups. Two fold dilution series of each compound (five concentrations, in the range 25-40 nM) were injected. Blank-subtracted data were fitted to a 1:1 interaction model to obtain kinetic parameters which are expressed in Table 4 as dissociation half-life (t1/2=(ln 2/off-rate (kd)/60).

[2] = at 24 h after intravenous infusion of a 2.5 mg dose; cited from earlier work

CGRP receptor ectodomain complex, sequence (Q16602 23-139): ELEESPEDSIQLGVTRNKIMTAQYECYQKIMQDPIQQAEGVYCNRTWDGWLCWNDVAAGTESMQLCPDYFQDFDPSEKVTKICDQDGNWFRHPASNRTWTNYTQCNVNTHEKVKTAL
CGRP receptor ectodomain complex, sequence (O60894 27-118): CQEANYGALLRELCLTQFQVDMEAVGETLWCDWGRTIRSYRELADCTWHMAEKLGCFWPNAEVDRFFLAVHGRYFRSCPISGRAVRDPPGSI
CGRP receptor, sequence (Q16602 23-461): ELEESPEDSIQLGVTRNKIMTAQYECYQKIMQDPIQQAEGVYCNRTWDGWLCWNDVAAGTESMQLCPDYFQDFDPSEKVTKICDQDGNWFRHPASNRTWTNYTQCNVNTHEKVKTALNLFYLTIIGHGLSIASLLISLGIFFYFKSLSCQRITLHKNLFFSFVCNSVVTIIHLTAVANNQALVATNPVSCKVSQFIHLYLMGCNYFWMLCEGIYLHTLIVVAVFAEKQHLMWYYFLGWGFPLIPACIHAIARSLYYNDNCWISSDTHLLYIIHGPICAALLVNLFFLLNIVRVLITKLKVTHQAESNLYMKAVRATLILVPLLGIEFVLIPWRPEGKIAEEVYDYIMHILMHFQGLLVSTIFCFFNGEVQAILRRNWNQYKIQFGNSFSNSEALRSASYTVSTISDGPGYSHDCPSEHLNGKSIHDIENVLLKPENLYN
CGRP receptor, sequence (O60894 27-148): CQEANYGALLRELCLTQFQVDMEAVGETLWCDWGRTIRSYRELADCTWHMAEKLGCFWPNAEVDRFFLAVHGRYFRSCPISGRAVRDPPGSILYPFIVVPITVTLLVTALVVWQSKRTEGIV

NCCCC[C@H](NC(=O)[C@@H](Cc1cc(Br)c(O)c(Br)c1)NC(=O)N1CCC(N2Cc3ccccc3NC2=O)CC1)C(=O)N1CCN(c2ccncc2)CC1 [olcegepant]
kinetics at the CGRP receptor (CGRP receptor): slow kinetics | CGRP t1/2 [1]: 30 min | headache-free rate [2]: 47%

Source: patent US10300056B2, “CGRP receptor antagonists” (Heptares Therapeutics Limited, priority 2015, dated 2019)
